From US12441763B2, “Hangtaimycin derivatives and their preparation methods and application” (WUHAN UNIVERSITY, priority 2022, dated 2025)

What was measured:
breast cancer = assay: Antitumor activity, MTT cell viability, breast cancer; format: cell-based; conditions: 50 μg/mL, 24 hours
Procedure: (§1) In a 96-well microplate, 100 μL of culture medium was put in each well and inoculate four cell strains with a fusion degree of 80% at a density of 8×10^3 cells. Cells were grown at 37° C., CO2 (5%) and air (95%). Each 96-well plate was placed with a concentration gradient of 0˜100 μg/mL of test compounds HTM, HTMA, HTMB, and HTMP. After 24 hours of incubation, the medium was removed, and 0.5 mg/mL MTT solution was added to each medium with cells and continue to incubate the cells for 4 hours at 37° C. Then 100 μL of DMSO was added to dissolve formazan crystals. Finally, absorbance was measured at 570 nm using a microplate reader (Bioteck EON, USA). The viability of the cells was calculated as the percentage of cell viability compared to vehicle control-treated cells, which were arbitrarily assigned as 100% viability. Each independent experiment was repeated five times. (*P<0.05, **P<0.01, ***P<0.001)

bladder cancer = assay: Antitumor activity, MTT cell viability, bladder cancer; format: cell-based; conditions: 50 μg/mL, 24 hours, P<0.01
Procedure: as §1

renal cancer = assay: Antitumor activity, MTT cell viability, renal cancer; format: cell-based; conditions: 24 hours, P<0.01
Procedure: as §1

[1] = Antioxidant activity, DPPH free radical scavenging; format: biochemical; conditions: 1~50 μg/mL, 0.1 mM DPPH, absorbance at 517 nm
Procedure: In this experiment, a 0.1 mM DPPH solution was prepared with ethanol, and each sample solution/dispersion was separately mixed with the DPPH solution in order to dilute it into a reaction product with a concentration gradient of 1˜50 μg/mL to evaluate the concentration-dependent antioxidant potential. The reaction product was measured for its absorbance (AS) at 517 nm using an ultraviolet-visible spectrophotometer, and its antioxidant activity was measured using DPPH removal as an indicator. The percentage of DPPH free radical scavenging is calculated by the following formula: […]
AS is the absorbance of the sample and A0 is the absorbance of the control (only DPPH solution).

[2] = test system: morphine reward memory reconsolidation; assay: Drug reward memory reconsolidation, morphine; format: in vivo, SD rats; conditions: 3 mg/kg i.p. after exposure to drug-paired box; group II vs group I; 7th day after reward memory activation; P<0.05
Procedure: (§2) Drug reward memory reconsolidation: Morphine, an opioid representative, and cocaine, a euphoric representative, were used to establish model addiction. On the first day, baseline was assessed by placing the rats in the center compartment of the CPP apparatus and allowing ad libitum access to all compartments for 15 minutes. And then, male SD rats were divided into the saline+morphine group, the HTMB (3 mg/kg)+morphine group, the saline+cocaine group, and the HTMB (3 mg/kg, i.p.)+cocaine group. The rats were exposed to CPP training from day 2 to 9. On the 10th day, the channel between the three boxes was opened, and the rats were allowed to move freely in the three boxes for 15 minutes for the CPP test. On the 11th day, the CPP expressing rats screened for CPP formation were divided into four groups: the group I (morphine+saline), the group II (morphine+3 mg/kg HTMB), the group III (cocaine+saline), and the group IV (cocaine+3 mg/kg HTMB). After exposure to drug-paired box for 10 minutes, groups I and III were injected with saline (1 ml/kg, i.p.), and the groups II and IV were injected with HTMB (3 mg/kg, i.p.). 24 hours after injection, we defined this as 1 day of activation of the reward memory. The CPP scores were measured on the 7th day after reward memory activation.

[3] = test system: cocaine reward memory reconsolidation; assay: Drug reward memory reconsolidation, cocaine; format: in vivo, SD rats; conditions: 3 mg/kg i.p. after exposure to drug-paired box; group IV vs group III; 7th day after reward memory activation; P<0.05
Procedure: as §2

liver cancer = assay: Antitumor activity, MTT cell viability, liver cancer; format: cell-based; conditions: 50 μg/mL, 24 hours, P<0.01
Procedure: as §1

[4] = test system: carrageenan-induced paw inflammation; assay: Anti-inflammatory effect in inflammatory model induced by carrageenan (paw); format: in vivo, Kunming mice; conditions: 10 mg/mL, 10 μL subcutaneous into right hind paw; 4 hours after carrageenan injection; vs carrageenan+solvent group; P<0.05
Procedure: Male Kunming mice weighing 18˜22 g were adaptively reared for 1 day, and then randomly divided into […] (5˜6 mice per group): the saline+solvent group, the saline+HTM group, the saline+HTMP group, the saline+HTMA group, the saline+HTMB group, the saline+rapamycin (250 nM) group, the carrageenan+solvent group, the carrageenan+HTM group, the carrageenan+HTMP group, the carrageenan+HTMA group, the carrageenan+HTMB group, and the carrageenan+rapamycin (250 nM) group. Where doses used for HTM, HTMP, HTMA, and HTMB were set at 1, 3, and 10 mg/mL, and their solutions all contained 5% DMSO. Experiments were designed based on previous studies (Zhang et al., 2018). Carrageenan was used to induce paw inflammation, and the experimental procedure was as follows:
(1) The thickness of the right hind foot of mice was measured with a vernier caliper before the experiment, and the measurement site was marked.
(2) The experimental group was then subcutaneously injected into the right hind paw with 10 μL of different concentrations of compound solutions. The control group was injected with 10 μL saline into the right hind paw.
(3) After administration, the carrageenan group was injected subcutaneously with 30 μL of 1% carrageenan solution into the right hind paw, and the other groups were injected with an equal volume of saline. The thickness of the right hind foot of each mouse was measured at the same site every 1 hour for the following 4 hours to observe the effect of the compounds on the change in foot thickness.

HepG2 cells = assay: Cellular assay for hepatoprotective activity, CCl4-induced liver injury cell model; format: cell-based; conditions: compared with the CCl4 group; HepG2 cell homogenates
Procedure: HepG2 cells were seeded into 24-well plates and kept at 37° C. in 5% CO2 in order to achieve 80% fusion. To evaluate the effects of HTMA, HTMB, and HTMP on aspartate aminotransferase (AST) and alanine aminotransferase (ALT) activity, and compare the results with those of Silymarin (positive control) (FIG. 26), a cellular assay for hepatoprotective activity was carried out using a CCl4-induced liver injury cell model. The cells were treated with the compounds followed by ultrasound disruption and cell homogenization to prepare the cell homogenates for analysis.

Compound: C=C(NC(=O)/C=C\C=C\CCCC1=CC(=O)OC(C(O)NC(=O)C(C)=CC(C)NC(=O)/C=C\C=C\C)C1)C(=O)NC(C(=O)N1C(=O)[C@@H](Cc2c[nH]c3ccccc23)N(C)C(=O)/C1=C/C)C(C)OC (some centres unmarked) [HTM, Hangtaimycin]
- survival rate of breast cancer (breast cancer; P<0.05): significantly inhibited
- survival rate of bladder cancer (bladder cancer): significantly inhibited
- survival rate of renal cancer (renal cancer; […]): significantly inhibited
- antioxidant capacity (DPPH free radical scavenging) [1]: have antioxidant capacity
- CPP scores, morphine reward memory reconsolidation [2]: inhibit
- CPP scores, cocaine reward memory reconsolidation [3]: inhibit

Compound: Deoxyhangtaimycin [HTMP]
- survival rate of liver cancer (liver cancer): significantly inhibited
- right hind foot thickness [4]: reduced
- survival rate of breast cancer (breast cancer; P<0.01): significantly inhibited
- survival rate of bladder cancer (bladder cancer): significantly inhibited
- survival rate of renal cancer (renal cancer; 50 μg/mL): significantly inhibited
- antioxidant capacity (DPPH free radical scavenging) [1]: have antioxidant capacity
- ALT levels (HepG2 cells): significantly reduced
- AST levels (HepG2 cells): significantly reduced
